In article PMC9572541, “Design, Synthesis and Biological Evaluation of Novel and Potent Protein Arginine Methyltransferases 5 Inhibitors for Cancer Therapy” (Molecules, 2022):
“Also recorded” adds a separate entry of the source. Where two headings read alike, the source gives them in different places.

How the values were obtained:
AML-12 hepatocytes = assay: Toxicity on normal AML-12 hepatocytes; assay type: cell-based
Source text: (§1) MV-4-11 and MDA-MB-468 cell lines were used to evaluate the anti-proliferative activities of the selected target compounds (CellTiter-Glo assay), and AML-12 hepatocytes were selected to evaluate the toxicity of the compounds.
MV-4-11 and MDA-MB-468 cell line were derived from Cell Resources Center of Shanghai Academy of life sciences (Shanghai, China). AML-12 cell line was brough from Nanjing Lixing Biotechnology Co. Ltd. (Nanjing, China). MDA-MB-468 cell line was maintained in Dulbecco’s Modified Eagle Medium (DMEM, KeyGEN Bio) that contained 10% FBS (Biochanel, China), MV-4-11 cell line was maintained in Iscove’s Modified Dulbecco Medium containing; 10% FBS (Biochannel, China), AML-12 cell line was maintained in DMEM/F-12 (1:1) (KeyGEN, China; 1% ITS Liquid Media Supplement (Sigma, America), dexamethasone 40 ng/mL (Sigma, USA) and 10% FBS (Biochannel, China). All cells were grown in a humidified incubator containing 5% carbon dioxide at 37 ℃. All compounds were dispersed in dimethyl sulfoxide (Sigma), the concentration of the reserve solution was 10 mmol/L and the solution was stored in a refrigerator at −20 ℃. SDMA (# 13222S), β- Tubulin (#2146S) and horseradish peroxidase (HRP)-linked secondary antibodies anti-rabbit or anti-mouse IgG were purchased from Cell Signaling Technology (CST), and the anti-PRMT5 (ab109451) antibody was purchased from ABCAM. […]

sDMA = assay: Western blot of PRMT5 substrate sDMA in MV-4-11 cells; assay type: cell-based; details: 96 h, five-fold concentration gradient
Method: Compounds were administered at the expected concentration for the expected time in MV-4-11 cell lines. After being washed twice with PBS, cells were lysed with RIPA buffer, protease inhibitors (PMSF, MCE, New York, NY, USA), and phosphatase cocktails II (MCE, USA) for 1 h. The mixture was centrifuged at 12000 rpm for 15 min. The total protein content was quantified by BCA kit (Beyotime, Shanghai, China). Equivalent proteins were electrophoresed through 8~10% SDS-PAGE and then transferred on to polyvinylidene difluoride membranes (Millipore, Burlington, MA, USA). Subsequently, block the membrane for 1~2 h by 5% (w/v) skim milk (BD, Columbus, OH, USA). Proteins were detected using primary antibodies, followed by HRP-conjugated secondary antibodies, and visualization was performed using ECL (Vazyme Biotech, Beijing, China) as the HRP substrate. The target blots were detected with chemiluminescence system (Tanon, Shanghai, China). The densitometric analysis was performed with Image J software.
Western blot analysis of PRMT5 substrate sDMA, as indicated in MV-4-11 cancer cells treated with the indicated compounds for 96 h. β-Tubulin was used as a loading control. (B) The relative strength of sDMA signal on the Western blots was measured by densitometry. The data are shown as the mean ± SD of three independent experiments.

MV-4-11 cells = assay: Anti-proliferation CellTiter-Glo assay, MV-4-11; assay type: cell-based; details: Homo sapiens, MV4-11, 12th day
Source text: as §1
MV-4-11 and MDA-MB-468 cell line were derived from Cell Resources Center of Shanghai Academy of life sciences (Shanghai, China). AML-12 cell line was brough from Nanjing Lixing Biotechnology Co. Ltd. (Nanjing, China). MDA-MB-468 cell line was maintained in Dulbecco’s Modified Eagle Medium (DMEM, KeyGEN Bio) that contained 10% FBS (Biochanel, China), MV-4-11 cell line was maintained in Iscove’s Modified Dulbecco Medium containing; 10% FBS (Biochannel, China), AML-12 cell line was maintained in DMEM/F-12 (1:1) (KeyGEN, China; 1% ITS Liquid Media Supplement (Sigma, America), dexamethasone 40 ng/mL (Sigma, USA) and 10% FBS (Biochannel, China). All cells were grown in a humidified incubator containing 5% carbon dioxide at 37 ℃. All compounds were dispersed in dimethyl sulfoxide (Sigma), the concentration of the reserve solution was 10 mmol/L and the solution was stored in a refrigerator at −20 ℃. SDMA (# 13222S), β- Tubulin (#2146S) and horseradish peroxidase (HRP)-linked secondary antibodies anti-rabbit or anti-mouse IgG were purchased from Cell Signaling Technology (CST), and the anti-PRMT5 (ab109451) antibody was purchased from ABCAM.
The antiproliferative activities of compounds in vitro were measured by CellTiter-Glo (CTG) assay (Promega, America). In linear/log-phase growth, cultured MV-4-11 cells were split to with seeding density of 2 × 10^5 cells/mL in 1–20 mL of media, depending on the yield required at the end of the growth period. At the conclusion of each treatment period, cells were harvested by centrifugation (4 min, 1000 rpm), and cell pellets were rinsed twice with PBS before being research further processing. Afterwards, cells were plated in 96-well plates with a density of 500 cells/well in […] media. After six hours incubation, compounds treatment was performed. Half of the culture medium was moved and re-plated with fresh media with fresh compound after 6 days. On the 12th day, Cell Titer-Glo Luminescent Cell Viability assays (Promega, USA) were used to determine the viable cell number, and luminescence was recorded using the Envision Multilabel Plate Readers (PerkinElmer). The concentration dependence curves were determined at each time point using GraphPad Prism 8.0 software.

PRMT5 = target: T1, PRMT5 (Homo sapiens, UniProt O14744); assay: Cellular thermal shift assay (CETSA) in MV-4-11 cells; assay type: cell-based
T1 construct: The final concentrations of PRMT5 enzyme: 2.5 nm/L
Method: The cellular thermal shift assay and the isothermal dose response were run as previously described. Briefly, MV-4-11 cells were collected and centrifugated (4 min, 1000 rpm) and washed twice with PBS. Then the cells were divided three equal parts with seeding density of 1 × 10^6 cells/mL into 60 mm cell culture dish in three mL media. The cell suspension was incubated with DMSO and compounds for 18 h at 37 °C, 5% CO2, and 85% RH.
After incubation, cells were collected and washed twice with PBS. Then they divided the ten parts into transferred thin-walled PCR tubes (0.2 mL, Axygen, Union City, CA, USA) in 50μL PBS. Cells were subjected to 3 min of heat in 96-well thermal cycler (Eppendorf Mastercycler nexus GSX1, Düsseldorf, German) at temperatures of 37, 46, 49, 52, 55, 58, 61, 64, 67 and 70 °C. After heating, cells were left to cool for 3 min and then snap frozen in −80 °C ultra-low temperature freezer overnight. The next day, cells were subjected to 3 rapid freeze thaws with 15 s of vortexing after each thaw. […]
(B) The relative strength of PRMT5 signal on the Western blots was measured by densitometry. […] All data were analyzed using a Boltzmann sigmoidal fit. […]

[1] = Pharmacokinetic study in ICR mice; assay type: in vivo, mouse; details: for MRT last: read-out: MRT0-t; for MRT inf: read-out: MRT0-∞
Method: The pharmacokinetic properties were evaluated by PRECEDO. China. SPF ICR mice (18–20 g, 6–8 weeks, n = 3 per group) were used to carried out pharmacokinetics determinations. […] Colleting samples at different times after treatment. Plasma was obtained from the blood samples by centrifugation (6000 rpm for 3 min at 2–8 °C) and stored at −20 °C. The LC-MS/MS (Shimadzu, API 4000) method was used to determine the concentration of each animal at each time point.

[2] = ICR, mouse, plasma, iv, 2 mg/kg, male mice, Table S1, mean ± SD
[3] = ICR, mouse, plasma, oral gavage, 10 mg/kg, male mice, Table S2, mean
[4] = male, ICR, mouse, plasma, iv, 2 mg/kg, ICR mouse, Table 4
[5] = male, ICR, mouse, plasma, iv, 2 mg/kg, male mice, Table S1, mean ± SD
[6] = male, ICR, mouse, plasma, po, 10 mg/kg, ICR mouse, Table 4
[7] = male, ICR, mouse, plasma, po, 10 mg/kg, oral gavage, male mice, Table S2, mean

T1 sequence (O14744 whole entry): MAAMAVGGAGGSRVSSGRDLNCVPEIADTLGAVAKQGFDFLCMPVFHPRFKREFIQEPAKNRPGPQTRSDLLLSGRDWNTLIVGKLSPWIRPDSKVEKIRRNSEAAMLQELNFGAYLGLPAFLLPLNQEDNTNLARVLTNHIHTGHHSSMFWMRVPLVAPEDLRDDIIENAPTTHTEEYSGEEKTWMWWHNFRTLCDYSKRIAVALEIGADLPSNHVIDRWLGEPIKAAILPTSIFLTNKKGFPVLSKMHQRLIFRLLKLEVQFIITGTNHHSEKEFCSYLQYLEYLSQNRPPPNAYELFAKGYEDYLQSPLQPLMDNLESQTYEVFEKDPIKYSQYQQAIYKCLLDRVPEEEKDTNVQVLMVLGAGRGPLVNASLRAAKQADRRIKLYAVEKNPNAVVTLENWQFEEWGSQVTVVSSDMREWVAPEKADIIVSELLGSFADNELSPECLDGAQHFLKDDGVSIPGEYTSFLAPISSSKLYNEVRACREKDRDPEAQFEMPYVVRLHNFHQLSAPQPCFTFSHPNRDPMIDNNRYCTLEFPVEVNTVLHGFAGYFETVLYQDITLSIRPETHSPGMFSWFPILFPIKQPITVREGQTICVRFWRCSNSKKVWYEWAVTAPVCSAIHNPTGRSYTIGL
T1 sequence (Q9BQA1 whole entry partner): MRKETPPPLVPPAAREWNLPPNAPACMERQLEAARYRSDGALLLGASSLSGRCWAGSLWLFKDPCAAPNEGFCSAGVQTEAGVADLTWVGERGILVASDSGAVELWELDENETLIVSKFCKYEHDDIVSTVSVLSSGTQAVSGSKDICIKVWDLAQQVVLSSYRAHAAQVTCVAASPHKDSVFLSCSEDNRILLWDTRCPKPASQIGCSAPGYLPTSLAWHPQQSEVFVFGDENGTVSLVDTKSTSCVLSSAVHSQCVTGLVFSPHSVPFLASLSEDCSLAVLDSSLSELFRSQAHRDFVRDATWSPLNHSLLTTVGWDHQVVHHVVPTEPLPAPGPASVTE

Which “toxicity to normal AML-12 hepatocytes (in words)” value (AML-12 hepatocytes) does the source give for `O=C(NC[C@H](O)CN1CCc2ccccc2C1)c1ccc2c(c1)c1c(n2CC2COC2)CCCC1` [Compound 20, (S)-N-(3-(3,4-dihydroisoquinolin-2(1H)-yl)-2-hydroxypropyl)-9-(oxetan-3-ylmethyl)-2,3,4,9-tetrahydro-1H-carbazole-6-carboxamide] here?
Its value is “almost no toxicity; also recorded: no significant cytotoxicity”.

What about the inhibition at 10 µM (AML-12 hepatocytes; Mus musculus, AML12, read-out: AML-12 Inhibition Rate% @10 μM) of the same molecule?
Its inhibition at 10 µM is -30.5 ± 9.4%.

What about the inhibition at 20 µM (AML-12 hepatocytes; Mus musculus, AML12, read-out: AML-12 Inhibition Rate% @20 μM) of the same molecule?
Its inhibition at 20 µM is -27 ± 1.2%.

What about the sDMA protein expression (sDMA) of the same molecule?
The sDMA protein expression was “concentration-dependent decrease in sDMA”.

And the GI50 (MV-4-11 cells)?
Its GI50 is 4.6 ± 0.9 nM.

And the “PRMT5 melting point increase compared to DMSO vehicle” value (PRMT5; 1 μM, 18 h)?
Its value is 7.2 °C.

And the “Inhibition of PRMT5 degradation at 58 °C” value (PRMT5; isothermal dose response, 58 °C)?
Its value is “dose-dependent manner”.

What about the AUC(0-t) [1, 2] of the same molecule?
Its AUC(0-t) is 1030 ± 68.5 ng·h/mL.

And the C0 [1, 2]?
The C0 was 1940 ± 330 ng/mL.

What about the Tmax [1, 2] of the same molecule?
The Tmax was 4.8 min.

What about the half-life [1, 2] of the same molecule?
The half-life was 29.4 ± 13.8 min.

What about the MRT last [1, 2] of the same molecule?
The MRT last was 26.4 ± 3 min.

What about the MRT inf [1, 2] of the same molecule?
The MRT inf was 27 ± 3 min.

What about the AUC(0-t) [1, 3] of the same molecule?
The AUC(0-t) was 728 ng·h/mL.

And the Tmax [1, 3]?
Its Tmax is 15 min.

And the bioavailability [1, 3]?
The bioavailability was 14.5%.

And the half-life [1, 3]?
The half-life was 364 min.

And the MRT last [1, 3]?
Its MRT last is 73.2 min.

What about the MRT inf [1, 3] of the same molecule?
Its MRT inf is 115 min.

And the T1/2 ([1]; iv, 2 mg/kg, ICR mouse, Table 4)?
Its T1/2 is 29.4 min.

What about the AUC(0-inf) [1, 4] of the same molecule?
Its AUC(0-inf) is 1030 ng·h/mL.

And the Cmax [1, 4]?
The Cmax was 1690 ng/mL.

What about the clearance [1, 4] of the same molecule?
The clearance was 32.4 mL/min/kg.

And the Vd ([1]; male, ICR, mouse, plasma, iv, 2 mg/kg, iv, 2 mg/kg, ICR mouse, Table 4, read-out: Vss)?
The Vd was 1.35 L/kg.

And the Vd ([1]; male, ICR, mouse, plasma, iv, 2 mg/kg, iv, 2 mg/kg, male mice, Table S1, mean ± SD, read-out: Vz)?
Its Vd is 1.35 ± 0.556 L/kg.

What about the AUC(0-inf) [1, 5] of the same molecule?
The AUC(0-inf) was 1030 ± 64.8 ng·h/mL.

And the Cmax [1, 5]?
Its Cmax is 1690 ± 133 ng/mL.

And the clearance [1, 5]?
The clearance was 32.4 mL/min/kg.

And the AUC(0-inf) [1, 6]?
Its AUC(0-inf) is 747 ng·h/mL.

And the Cmax [1, 6]?
The Cmax was 1270 ng/mL.

And the AUC(0-inf) [1, 7]?
Its AUC(0-inf) is 747 ng·h/mL.

What about the Cmax [1, 7] of the same molecule?
The Cmax was 1270 ng/mL.

What about the bioavailability ([1]; male, plasma, po 10 mg/kg vs iv 2 mg/kg, ICR mouse, Table 4) of the same molecule?
Its bioavailability is 14.5%.

And the T1/2 ([1]; po, 10 mg/kg, ICR mouse, Table 4)?
The T1/2 was 364 min.
